The source of these data is US10005818B2, “Derivative peptide compounds and methods of use” (REALTA HOLDINGS, LLC, priority 2010, dated 2018).

The subject of data set [1] is complement activation in factor B-depleted human sera. The format is biochemical. How it is done:
Peptides were diluted to 0.77 mM in factor B-depleted human sera (Complement Technologies, Inc.) and incubated for 1 hour at 37° C. These peptides were then diluted with GVBS^++ to equal 2.5/s serum, of which 0.25 ml was combined with 0.4 ml of GVBS^++ and 0.1 ml of sensitized sheep red blood cells (RBCs) and again incubated for 1 hour at 37° C. The procedure was stopped by the addition of 4.0 ml of GVBS^−−, centrifuged for 5 minutes at 1,620×g, and the absorbance of the supernatants was read at 412 nm in a spectrophotometer. The percent lysis of each sample was standardized to that of the serum only control.
The final concentration of peptide in factor B-depleted serum was 0.77 mM. Each peptide was evaluated in triplicate and the mean values are reported. […] In the hemolytic assay, soluble peptides are standardized to water and insoluble peptides standardized to DMSO.
Polar Assortant peptides were serially diluted in undiluted factor B-depleted human sera (Complement Technologies, Inc.) and incubated for 1 hour at 37° C. Water, GVBS^++ and DMSO were included as controls. These peptides were then diluted with GVBS^++ to equal 2.5/s serum, of which 0.25 ml was combined with 0.4 ml of GVBS^++ and 0.1 ml of sensitized sheep red blood cells (RBCs) and again incubated for 1 hour at 37° C. The procedure was stopped by the addition of 4.0 ml of GVBS^−−, centrifuged for 5 minutes at 1,620×g, and the absorbance of the supernatants was read at 412 nm in a spectrophotometer. The percent lysis of each sample was standardized to that of the serum only control.
The final concentration of peptide in factor B-depleted serum was 0.77 mM. […] In the hemolytic assay, soluble peptides were standardized to water and insoluble peptides standardized to DMSO.
The final concentration of peptide in factor B-depleted serum was 0.77 mM. […] In the hemolytic assay, soluble peptides are standardized to water and insoluble peptides standardized to DMSO.

The nature of data set [2]: Solubility in water. Type of data set: physicochemical.
Setting [3] is: Table 7, PEGylated and sarcosine/alanine substitution peptides.

Square brackets hold non-standard residues; d marks the D form. Ends that are not written are not given here. Peptide text beside a SMILES is read from it. PEG24 = NCCOCCOCCOCCOCCOCCOCCOCCOCCOCCOCCOCCOCCOCCOCCOCCOCCOCCOCCOCCOCCOCCOCCOCCOCCC(=O)O; Sar = CNCC(=O)O

For the compound `CC[C@H](C)[C@H](N)C(=O)N[C@@H](C)C(=O)N[C@@H](CC(C)C)C(=O)N[C@H](C(=O)N[C@@H](CC(C)C)C(=O)N[C@@H](C)C(=O)N1CCC[C@H]1C(=O)N[C@H](C(=O)N[C@@H](CS)C(=O)N[C@@H](CS)C(=O)N[C@@H](CCC(N)=O)C(=O)N[C@@H](C)C(=O)N[C@@H](CCCNC(=N)N)C(=O)N[C@@H](C)C(=O)N[C@@H](C)C(=O)NCCOCCOCCOCCOCCOCCOCCOCCOCCOCCOCCOCCOCCOCCOCCOCCOCCOCCOCCOCCOCCOCCOCCOCCOCCC(=O)O)[C@@H](C)CC)[C@@H](C)CC` [E6AE12A-dPEG24] (H-IALILAPICCQARAA[PEG24]-OH; N-terminus assumed), the “Hemolysis (%)” value in data set [1] came out at 4.95%. Moreover, the Solubility in water result in data set [2] (setting [3]) is “Yes”.

Take “dPEG24-IALILEPICCQERAA (cysteine pairing not given here) [dPEG24-PA]”: in data set [1] (factor B depleted serum), the “inhibition of complement activity in hemolytic assay” value is listed as “varying degrees of complement inhibition”. In addition, the “solubility in water / aqueous solutions” value in data set [2] is given as “soluble in water”. Take `CC[C@H](C)[C@H](N)C(=O)N[C@@H](C)C(=O)N[C@@H](CC(C)C)C(=O)N[C@H](C(=O)N[C@@H](CC(C)C)C(=O)N[C@@H](CCC(=O)O)C(=O)N(C)CC(=O)N[C@H](C(=O)N[C@@H](CS)C(=O)N[C@@H](CS)C(=O)N[C@@H](CCC(N)=O)C(=O)N[C@@H](CCC(=O)O)C(=O)N(C)CC(=O)N[C@@H](C)C(=O)N[C@@H](C)C(=O)O)[C@@H](C)CC)[C@@H](C)CC` [Peptide R13SarP7Sar, IALILE(Sar)ICCQE(Sar)AA] (H-IALILE[Sar]ICCQE[Sar]AA-OH): the “Hemolysis (%)” value in data set [1] is reported as 26.35%. For the same compound, the Solubility in water result in data set [2] (setting [3]) was “No”. In the case of `CC[C@H](C)[C@H](N)C(=O)N[C@@H](C)C(=O)N[C@@H](CC(C)C)C(=O)N[C@H](C(=O)N[C@@H](CC(C)C)C(=O)N[C@@H](CCC(=O)O)C(=O)N1CCC[C@H]1C(=O)N[C@H](C(=O)N(C)CC(=O)N[C@@H](C)C(=O)N[C@@H](CCC(N)=O)C(=O)N[C@@H](CCC(=O)O)C(=O)N[C@@H](CCCNC(=N)N)C(=O)N[C@@H](C)C(=O)N[C@@H](C)C(=O)O)[C@@H](C)CC)[C@@H](C)CC` [PA-C9SarC10A] (H-IALILEPI[Sar]AQERAA-OH), the “Hemolysis (%)” value in data set [1] was 99.37%. In data set [2] (setting [3]), the Solubility in water result was “Yes”. With `CC[C@H](C)[C@H](N)C(=O)N[C@@H](C)C(=O)N[C@@H](CC(C)C)C(=O)N[C@H](C(=O)N[C@@H](CC(C)C)C(=O)N[C@@H](CCC(=O)O)C(=O)N1CCC[C@H]1C(=O)N[C@H](C(=O)N[C@@H](CS)C(=O)N[C@@H](CS)C(=O)N[C@@H](CCC(N)=O)C(=O)N[C@@H](CCC(=O)O)C(=O)N[C@@H](CCCNC(=N)N)C(=O)N(C)CC(=O)N[C@@H](C)C(=O)NCCOCCOCCOCCOCCOCCOCCOCCOCCOCCOCCOCCOCCOCCOCCOCCOCCOCCOCCOCCOCCOCCOCCOCCOCCC(=O)O)[C@@H](C)CC)[C@@H](C)CC` [PA-A14Sar-dPEG24], the “Hemolysis (%)” value in data set [1] is given as 3.68%. Moreover, the Solubility in water entry in data set [2] (setting [3]) is on record as “Yes”. For the compound `CC[C@H](C)[C@H](N)C(=O)N[C@@H](C)C(=O)N[C@@H](CC(C)C)C(=O)N[C@H](C(=O)N[C@@H](CC(C)C)C(=O)N[C@@H](CCC(=O)O)C(=O)N1CCC[C@H]1C(=O)N[C@H](C(=O)N(C)CC(=O)N[C@@H](CS)C(=O)N(C)CC(=O)N[C@@H](CCC(=O)O)C(=O)N[C@@H](CCCNC(=N)N)C(=O)N[C@@H](C)C(=O)N[C@@H](C)C(=O)O)[C@@H](C)CC)[C@@H](C)CC` [Peptide Q11SarC9Sar] (H-IALILEPI[Sar]C[Sar]ERAA-OH), the “Hemolysis (%)” value in data set [1] is listed as 15.42%. Besides, in data set [2] (setting [3]), the Solubility in water entry is on record as “Yes”. As to `CC[C@H](C)[C@H](N)C(=O)N[C@@H](C)C(=O)N[C@@H](CC(C)C)C(=O)N[C@H](C(=O)N[C@@H](CC(C)C)C(=O)N[C@@H](CCC(=O)O)C(=O)N1CCC[C@H]1C(=O)N[C@H](C(=O)N[C@@H](CS)C(=O)N[C@@H](CS)C(=O)N[C@@H](CCC(N)=O)C(=O)N[C@@H](CCC(=O)O)C(=O)N[C@@H](CCCNC(=N)N)C(=O)N[C@@H](C)C(=O)N[C@@H](C)C(=O)NCCOCCOCCOCCOCCOCCOCCOCCOCCC(=O)O)[C@@H](C)CC)[C@@H](C)CC` [PA-dPEG08], the Solubility in water entry in data set [2] (Table 6, PEGylated PA peptides) is reported as “Yes”. On the same count and under the same terms, to `CC[C@H](C)[C@H](N)C(=O)N[C@@H](C)C(=O)N[C@@H](CC(C)C)C(=O)N[C@H](C(=O)N[C@@H](CC(C)C)C(=O)N[C@@H](CCC(=O)O)C(=O)N1CCC[C@H]1C(=O)N[C@H](C(=O)N[C@@H](CS)C(=O)N[C@@H](CS)C(=O)N[C@@H](CCC(N)=O)C(=O)N[C@@H](CCC(=O)O)C(=O)N[C@@H](CCCNC(=N)N)C(=O)N[C@@H](C)C(=O)N[C@@H](C)C(=O)NCCOCCOCCOCCOCCOCCOCCC(=O)O)[C@@H](C)CC)[C@@H](C)CC` [PA-dPEG06] belongs “No”; to `CC[C@H](C)[C@H](N)C(=O)N[C@@H](C)C(=O)N[C@@H](CC(C)C)C(=O)N[C@H](C(=O)N[C@@H](CC(C)C)C(=O)N[C@@H](CCC(=O)O)C(=O)N1CCC[C@H]1C(=O)N[C@H](C(=O)N[C@@H](CS)C(=O)N[C@@H](CS)C(=O)N[C@@H](CCC(N)=O)C(=O)N[C@@H](CCC(=O)O)C(=O)N[C@@H](CCCNC(=N)N)C(=O)N[C@@H](C)C(=O)N[C@@H](C)C(=O)NCCOCCOCCC(=O)O)[C@@H](C)CC)[C@@H](C)CC` [PA-dPEG02], “Yes”. The same measure, in the same setting: to `CC[C@H](C)[C@H](N)C(=O)N[C@@H](C)C(=O)N[C@@H](CC(C)C)C(=O)N[C@H](C(=O)N[C@@H](CC(C)C)C(=O)N[C@@H](CCC(=O)O)C(=O)N1CCC[C@H]1C(=O)N[C@H](C(=O)N[C@@H](CS)C(=O)N[C@@H](CS)C(=O)N[C@@H](CCC(N)=O)C(=O)N[C@@H](CCC(=O)O)C(=O)N[C@@H](CCCNC(=N)N)C(=O)N[C@@H](C)C(=O)N[C@@H](C)C(=O)NCCOCCOCCOCCOCCOCCOCCOCCOCCOCCOCCOCCOCCOCCOCCOCCOCCC(=O)O)[C@@H](C)CC)[C@@H](C)CC` [PA-dPEG16] belongs “Yes”. Still for that read-out and setting: to `CC[C@H](C)[C@H](N)C(=O)N[C@@H](C)C(=O)N[C@@H](CC(C)C)C(=O)N[C@H](C(=O)N[C@@H](CC(C)C)C(=O)N[C@@H](CCC(=O)O)C(=O)N1CCC[C@H]1C(=O)N[C@H](C(=O)N[C@@H](CS)C(=O)N[C@@H](CS)C(=O)N[C@@H](CCC(N)=O)C(=O)N[C@@H](CCC(=O)O)C(=O)N[C@@H](CCCNC(=N)N)C(=O)N[C@@H](C)C(=O)N[C@@H](C)C(=O)NCCOCCOCCOCCOCCOCCOCCOCCOCCOCCOCCOCCOCCC(=O)O)[C@@H](C)CC)[C@@H](C)CC` [PA-dPEG12] belongs “Yes”.

In the case of `CC[C@H](C)[C@H](N)C(=O)N[C@@H](C)C(=O)N[C@@H](CC(C)C)C(=O)N[C@H](C(=O)N[C@@H](CC(C)C)C(=O)N[C@@H](CCC(=O)O)C(=O)N1CCC[C@H]1C(=O)N[C@H](C(=O)N[C@@H](CS)C(=O)N[C@@H](CS)C(=O)N[C@@H](CCC(N)=O)C(=O)N[C@@H](CCC(=O)O)C(=O)N[C@@H](CCCNC(=N)N)C(=O)N[C@@H](C)C(=O)N[C@@H](C)C(=O)O)[C@@H](C)CC)[C@@H](C)CC` [PA], the “solubility in water / aqueous solutions” value in data set [2] is “low solubility”. In data set [2] (Table 5, sarcosine substitution peptides), the Solubility in water result is reported as “No”.

Take `CC[C@H](C)[C@H](N)C(=O)N[C@@H](C)C(=O)N[C@@H](CC(C)C)C(=O)N[C@H](C(=O)N[C@@H](CC(C)C)C(=O)N[C@@H](CCC(=O)O)C(=O)N1CCC[C@H]1C(=O)N[C@H](C(=O)N[C@@H](CS)C(=O)N[C@@H](CS)C(=O)N[C@@H](CCC(N)=O)C(=O)N[C@@H](CCC(=O)O)C(=O)N[C@@H](CCCNC(=N)N)C(=O)N[C@@H](C)C(=O)N[C@@H](C)C(=O)NCCOCCOCCOCCOCCC(=O)O)[C@@H](C)CC)[C@@H](C)CC` [PA-dPEG04]: the Solubility in water entry in data set [2] (Table 6, PEGylated PA peptides) is on record as “Yes”. As to `CC[C@H](C)[C@H](N)C(=O)N[C@@H](C)C(=O)N[C@@H](CC(C)C)C(=O)N[C@H](C(=O)N[C@@H](CC(C)C)C(=O)N[C@@H](CCC(=O)O)C(=O)N1CCC[C@H]1C(=O)N[C@H](C(=O)N[C@@H](CS)C(=O)N[C@@H](CS)C(=O)N[C@@H](CCC(N)=O)C(=O)N[C@@H](CCC(=O)O)C(=O)N[C@@H](CCCNC(=N)N)C(=O)N[C@@H](C)C(=O)N[C@@H](C)C(=O)NCCOCCOCCOCCOCCOCCOCCOCCOCCOCCOCCOCCOCCOCCOCCOCCOCCOCCOCCOCCOCCC(=O)O)[C@@H](C)CC)[C@@H](C)CC` [PA-dPEG20], the Solubility in water entry in data set [2] (Table 6, PEGylated PA peptides) is listed as “Yes”. The same measure, in the same setting: to `CC[C@H](C)[C@H](N)C(=O)N[C@@H](C)C(=O)N[C@@H](CC(C)C)C(=O)N[C@H](C(=O)N[C@@H](CC(C)C)C(=O)N[C@@H](CCC(=O)O)C(=O)N1CCC[C@H]1C(=O)N[C@H](C(=O)N[C@@H](CS)C(=O)N[C@@H](CS)C(=O)N[C@@H](CCC(N)=O)C(=O)N[C@@H](CCC(=O)O)C(=O)N[C@@H](CCCNC(=N)N)C(=O)N[C@@H](C)C(=O)N[C@@H](C)C(=O)NCCOCCOCCOCCC(=O)O)[C@@H](C)CC)[C@@H](C)CC` [PA-dPEG03] belongs “Yes”.
